In ChEMBL document CHEMBL1687697 (ACS Med Chem Lett, 2010):
The source made the active and inactive calls. No cut-off for these calls is given here.

Tests used:
DU-145 [1] = assay: Cell cycle arrest in human DU145 cells assessed as accumulation in S phase at 0.5 uM after 24 hrs by FACS flow cytometry; type: functional
DU-145 [2] = assay: Cell cycle arrest in human DU145 cells assessed as accumulation in G2/M phase at 0.5 uM after 24 hrs by FACS flow cytometry; type: functional
DU-145 [3] = assay: Cell cycle arrest in human DU145 cells assessed as accumulation in G0/G1 phase at 1 uM after 24 hrs by FACS flow cytometry; type: functional
DU-145 [4] = assay: Cell cycle arrest in human DU145 cells assessed as accumulation in S phase at 1 uM after 24 hrs by FACS flow cytometry; type: functional
DU-145 [5] = assay: Cell cycle arrest in human DU145 cells assessed as accumulation in G2/M phase at 1 uM after 24 hrs by FACS flow cytometry; type: functional
DU-145 [6] = assay: Induction of apoptosis in human DU145 cells assessed as viable cells at 1 uM after 72 hrs by AnnexinV-propidium iodide based FACS flow cytometry; type: functional; conditions: DU-145, 72 h, read-out: Activity
DU-145 [7] = assay: Induction of apoptosis in human DU145 cells assessed as early apoptotic cells at 1 uM after 72 hrs by AnnexinV-propidium iodide based FACS flow cytometry; type: functional
DU-145 [8] = assay: Induction of apoptosis in human DU145 cells assessed as late apoptotic cells at 1 uM after 72 hrs by AnnexinV-propidium iodide based FACS flow cytometry; type: functional
DU-145 [9] = assay: Induction of apoptosis in human DU145 cells assessed as necrotic cells at 1 uM after 72 hrs by AnnexinV-propidium iodide based FACS flow cytometry; type: functional
DU-145 [10] = assay: Induction of apoptosis in human DU145 cells assessed as viable cells at 5 uM after 72 hrs by AnnexinV-propidium iodide based FACS flow cytometry; type: functional; conditions: DU-145, 72 h, read-out: Activity
DU-145 [11] = assay: Induction of apoptosis in human DU145 cells assessed as early apoptotic cells at 5 uM after 72 hrs by AnnexinV-propidium iodide based FACS flow cytometry; type: functional
DU-145 [12] = assay: Induction of apoptosis in human DU145 cells assessed as late apoptotic cells at 5 uM after 72 hrs by AnnexinV-propidium iodide based FACS flow cytometry; type: functional
DU-145 [13] = assay: Induction of apoptosis in human DU145 cells assessed as necrotic cells at 5 uM after 72 hrs by AnnexinV-propidium iodide based FACS flow cytometry; type: functional
DU-145 [14] = assay: Induction of apoptosis in human DU145 cells assessed as viable cells at 10 uM after 72 hrs by AnnexinV-propidium iodide based FACS flow cytometry; type: functional; conditions: DU-145, 72 h, read-out: Activity
DU-145 [15] = assay: Induction of apoptosis in human DU145 cells assessed as early apoptotic cells at 10 uM after 72 hrs by AnnexinV-propidium iodide based FACS flow cytometry; type: functional
DU-145 [16] = assay: Induction of apoptosis in human DU145 cells assessed as late apoptotic cells at 10 uM after 72 hrs by AnnexinV-propidium iodide based FACS flow cytometry; type: functional
DU-145 [17] = assay: Induction of apoptosis in human DU145 cells assessed as necrotic cells at 10 uM after 72 hrs by AnnexinV-propidium iodide based FACS flow cytometry; type: functional
[18] = molecular target: Tyrosine-protein kinase ABL1 (Homo sapiens, UniProt P00519); assay: Inhibition of Abl1 after 60 mins by radiometric assay
Sequence of Tyrosine-protein kinase ABL1 (P00519 whole entry): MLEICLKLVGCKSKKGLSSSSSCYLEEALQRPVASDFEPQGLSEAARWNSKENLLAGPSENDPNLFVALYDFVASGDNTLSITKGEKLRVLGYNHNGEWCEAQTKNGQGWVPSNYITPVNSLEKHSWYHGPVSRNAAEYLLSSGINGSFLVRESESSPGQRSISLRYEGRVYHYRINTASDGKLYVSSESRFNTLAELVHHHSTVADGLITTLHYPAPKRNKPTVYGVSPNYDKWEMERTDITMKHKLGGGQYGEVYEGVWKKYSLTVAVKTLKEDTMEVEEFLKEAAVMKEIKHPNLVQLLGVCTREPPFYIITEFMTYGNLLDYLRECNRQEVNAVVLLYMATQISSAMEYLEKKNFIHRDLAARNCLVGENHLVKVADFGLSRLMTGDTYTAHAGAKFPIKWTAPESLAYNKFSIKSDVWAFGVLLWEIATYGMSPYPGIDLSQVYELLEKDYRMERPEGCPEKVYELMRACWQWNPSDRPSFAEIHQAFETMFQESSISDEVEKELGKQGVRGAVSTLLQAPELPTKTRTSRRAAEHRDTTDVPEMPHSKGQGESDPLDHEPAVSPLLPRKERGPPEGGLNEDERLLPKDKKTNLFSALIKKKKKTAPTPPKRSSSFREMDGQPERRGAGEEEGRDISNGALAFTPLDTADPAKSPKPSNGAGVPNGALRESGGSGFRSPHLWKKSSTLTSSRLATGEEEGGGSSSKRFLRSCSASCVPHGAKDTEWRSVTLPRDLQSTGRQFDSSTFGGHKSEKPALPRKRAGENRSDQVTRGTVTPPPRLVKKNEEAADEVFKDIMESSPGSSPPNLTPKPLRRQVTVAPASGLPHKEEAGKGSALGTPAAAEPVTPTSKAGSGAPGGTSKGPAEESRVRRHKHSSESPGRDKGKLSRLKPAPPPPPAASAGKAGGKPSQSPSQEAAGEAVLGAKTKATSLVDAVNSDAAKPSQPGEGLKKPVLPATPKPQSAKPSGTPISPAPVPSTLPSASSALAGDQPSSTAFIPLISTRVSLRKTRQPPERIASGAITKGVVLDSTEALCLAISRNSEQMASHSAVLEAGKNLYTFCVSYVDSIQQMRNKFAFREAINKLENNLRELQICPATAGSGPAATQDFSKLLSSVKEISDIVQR

[19] = molecular target: RAC-alpha serine/threonine-protein kinase (Homo sapiens, UniProt P31749); assay: Inhibition of Akt1 after 60 mins by radiometric assay
Aurora kinase A = Aurora kinase A (Homo sapiens, UniProt O14965); assay: Inhibition of Aurora-A after 60 mins by radiometric assay
Sequence of Aurora kinase A (O14965 whole entry): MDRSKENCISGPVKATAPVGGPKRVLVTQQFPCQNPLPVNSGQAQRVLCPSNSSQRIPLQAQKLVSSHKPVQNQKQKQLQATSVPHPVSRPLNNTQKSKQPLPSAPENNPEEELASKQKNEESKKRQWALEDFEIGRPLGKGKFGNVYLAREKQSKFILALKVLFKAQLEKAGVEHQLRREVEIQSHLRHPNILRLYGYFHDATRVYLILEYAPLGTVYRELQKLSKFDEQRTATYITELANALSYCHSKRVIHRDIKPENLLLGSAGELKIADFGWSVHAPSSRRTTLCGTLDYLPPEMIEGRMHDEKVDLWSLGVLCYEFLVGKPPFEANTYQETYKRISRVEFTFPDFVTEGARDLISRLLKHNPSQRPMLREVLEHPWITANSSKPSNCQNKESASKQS

[20] = molecular target: Serine/threonine-protein kinase B-raf (Homo sapiens, UniProt P15056); assay: Inhibition of B-Raf after 60 mins by radiometric assay
[21] = molecular target: Serine/threonine-protein kinase B-raf (Homo sapiens, UniProt P15056, V600E); assay: Inhibition of B-Raf V600E mutant after 60 mins by radiometric assay
Sequence of Serine/threonine-protein kinase B-raf (Homo sapiens, UniProt P15056, V600E) (P15056 2-766 V600E limits assumed): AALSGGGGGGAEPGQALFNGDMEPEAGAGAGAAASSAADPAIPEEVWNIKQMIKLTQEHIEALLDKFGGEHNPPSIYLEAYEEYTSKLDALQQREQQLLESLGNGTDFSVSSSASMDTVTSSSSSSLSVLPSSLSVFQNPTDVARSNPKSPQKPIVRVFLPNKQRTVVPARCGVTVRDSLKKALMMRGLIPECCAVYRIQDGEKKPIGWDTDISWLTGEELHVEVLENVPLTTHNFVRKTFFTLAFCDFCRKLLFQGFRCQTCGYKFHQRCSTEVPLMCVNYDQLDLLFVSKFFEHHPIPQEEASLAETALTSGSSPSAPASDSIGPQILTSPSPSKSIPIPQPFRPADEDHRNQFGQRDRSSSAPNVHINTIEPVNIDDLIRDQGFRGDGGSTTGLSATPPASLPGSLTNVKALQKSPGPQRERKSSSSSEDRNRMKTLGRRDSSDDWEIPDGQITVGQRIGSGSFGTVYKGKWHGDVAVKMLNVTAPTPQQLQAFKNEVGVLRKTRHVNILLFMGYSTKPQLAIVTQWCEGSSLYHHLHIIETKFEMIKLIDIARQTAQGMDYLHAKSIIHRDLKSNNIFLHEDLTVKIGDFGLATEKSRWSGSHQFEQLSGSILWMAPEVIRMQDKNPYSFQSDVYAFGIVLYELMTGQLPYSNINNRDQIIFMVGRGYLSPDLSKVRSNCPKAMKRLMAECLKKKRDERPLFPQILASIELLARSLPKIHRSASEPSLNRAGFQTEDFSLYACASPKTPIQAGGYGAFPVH

[22] = molecular target: Mitogen-activated protein kinase 1 (Homo sapiens, UniProt P28482); assay: Inhibition of Erk2 after 60 mins by radiometric assay
Sequence of Mitogen-activated protein kinase 1 (P28482 whole entry): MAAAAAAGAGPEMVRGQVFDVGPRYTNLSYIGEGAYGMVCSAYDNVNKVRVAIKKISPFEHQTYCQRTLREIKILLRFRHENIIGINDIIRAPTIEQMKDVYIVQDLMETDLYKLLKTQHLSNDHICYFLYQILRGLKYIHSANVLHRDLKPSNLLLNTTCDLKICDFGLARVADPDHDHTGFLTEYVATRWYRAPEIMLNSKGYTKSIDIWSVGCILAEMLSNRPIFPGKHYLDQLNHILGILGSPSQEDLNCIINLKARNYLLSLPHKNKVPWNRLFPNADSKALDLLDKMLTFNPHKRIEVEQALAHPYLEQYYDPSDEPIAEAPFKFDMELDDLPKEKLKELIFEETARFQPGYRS

[23] = molecular target: Fibroblast growth factor receptor 1 (Homo sapiens, UniProt P11362); assay: Inhibition of FGFR-1 after 60 mins by radiometric assay
[24] = molecular target: Glycogen synthase kinase-3 beta (Homo sapiens, UniProt P49841); assay: Inhibition of GSK3-beta after 60 mins by radiometric assay
Sequence of Glycogen synthase kinase-3 beta (P49841 whole entry): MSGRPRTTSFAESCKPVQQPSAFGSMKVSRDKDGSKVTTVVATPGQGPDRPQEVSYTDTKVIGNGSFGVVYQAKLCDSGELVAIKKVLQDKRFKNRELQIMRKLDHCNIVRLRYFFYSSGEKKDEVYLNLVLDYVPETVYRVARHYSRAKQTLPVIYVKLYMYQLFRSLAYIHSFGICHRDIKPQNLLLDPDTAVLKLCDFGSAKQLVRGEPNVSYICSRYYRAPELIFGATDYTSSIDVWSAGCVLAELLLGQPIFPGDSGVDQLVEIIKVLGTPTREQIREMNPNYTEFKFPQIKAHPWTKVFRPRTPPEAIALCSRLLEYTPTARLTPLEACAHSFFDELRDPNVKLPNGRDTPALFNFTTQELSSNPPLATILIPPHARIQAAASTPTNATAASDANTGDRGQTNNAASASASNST

[25] = molecular target: Receptor-type tyrosine-protein kinase FLT3 (Homo sapiens, UniProt P36888); assay: Inhibition of Flt3 after 60 mins by radiometric assay
Sequence of Receptor-type tyrosine-protein kinase FLT3 (P36888 whole entry): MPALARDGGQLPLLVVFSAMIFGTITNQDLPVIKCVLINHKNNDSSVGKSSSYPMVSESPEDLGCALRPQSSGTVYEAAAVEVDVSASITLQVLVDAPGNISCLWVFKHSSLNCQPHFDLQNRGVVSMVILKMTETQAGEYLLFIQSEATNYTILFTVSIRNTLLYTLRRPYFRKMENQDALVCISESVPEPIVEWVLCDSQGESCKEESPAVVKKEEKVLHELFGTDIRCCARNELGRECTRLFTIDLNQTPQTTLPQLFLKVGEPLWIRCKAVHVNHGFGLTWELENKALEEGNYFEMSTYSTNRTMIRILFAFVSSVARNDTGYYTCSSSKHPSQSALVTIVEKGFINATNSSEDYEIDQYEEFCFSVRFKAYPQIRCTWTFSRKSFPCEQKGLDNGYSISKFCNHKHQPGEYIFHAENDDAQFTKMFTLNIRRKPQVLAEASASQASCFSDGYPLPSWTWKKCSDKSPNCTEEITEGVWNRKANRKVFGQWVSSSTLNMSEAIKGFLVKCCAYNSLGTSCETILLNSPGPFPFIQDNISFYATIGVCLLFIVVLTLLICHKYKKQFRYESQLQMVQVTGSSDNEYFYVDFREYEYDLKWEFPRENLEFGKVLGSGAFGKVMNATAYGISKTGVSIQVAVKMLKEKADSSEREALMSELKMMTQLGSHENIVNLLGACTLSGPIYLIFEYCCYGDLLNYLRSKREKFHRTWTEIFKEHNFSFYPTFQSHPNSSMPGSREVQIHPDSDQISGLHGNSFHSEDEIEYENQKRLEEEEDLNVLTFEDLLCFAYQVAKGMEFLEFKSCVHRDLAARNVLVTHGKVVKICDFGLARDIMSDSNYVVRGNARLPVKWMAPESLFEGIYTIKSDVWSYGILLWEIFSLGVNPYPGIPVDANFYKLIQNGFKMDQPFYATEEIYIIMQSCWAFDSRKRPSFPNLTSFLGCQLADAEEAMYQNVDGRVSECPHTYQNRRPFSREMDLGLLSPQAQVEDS

[26] = molecular target: Mitogen-activated protein kinase 8 (Homo sapiens, UniProt P45983); assay: Inhibition of JNK1 after 60 mins by radiometric assay
[27] = molecular target: Mast/stem cell growth factor receptor Kit (Homo sapiens, UniProt P10721); assay: Inhibition of KIT after 60 mins by radiometric assay
Sequence of Mast/stem cell growth factor receptor Kit (P10721 whole entry): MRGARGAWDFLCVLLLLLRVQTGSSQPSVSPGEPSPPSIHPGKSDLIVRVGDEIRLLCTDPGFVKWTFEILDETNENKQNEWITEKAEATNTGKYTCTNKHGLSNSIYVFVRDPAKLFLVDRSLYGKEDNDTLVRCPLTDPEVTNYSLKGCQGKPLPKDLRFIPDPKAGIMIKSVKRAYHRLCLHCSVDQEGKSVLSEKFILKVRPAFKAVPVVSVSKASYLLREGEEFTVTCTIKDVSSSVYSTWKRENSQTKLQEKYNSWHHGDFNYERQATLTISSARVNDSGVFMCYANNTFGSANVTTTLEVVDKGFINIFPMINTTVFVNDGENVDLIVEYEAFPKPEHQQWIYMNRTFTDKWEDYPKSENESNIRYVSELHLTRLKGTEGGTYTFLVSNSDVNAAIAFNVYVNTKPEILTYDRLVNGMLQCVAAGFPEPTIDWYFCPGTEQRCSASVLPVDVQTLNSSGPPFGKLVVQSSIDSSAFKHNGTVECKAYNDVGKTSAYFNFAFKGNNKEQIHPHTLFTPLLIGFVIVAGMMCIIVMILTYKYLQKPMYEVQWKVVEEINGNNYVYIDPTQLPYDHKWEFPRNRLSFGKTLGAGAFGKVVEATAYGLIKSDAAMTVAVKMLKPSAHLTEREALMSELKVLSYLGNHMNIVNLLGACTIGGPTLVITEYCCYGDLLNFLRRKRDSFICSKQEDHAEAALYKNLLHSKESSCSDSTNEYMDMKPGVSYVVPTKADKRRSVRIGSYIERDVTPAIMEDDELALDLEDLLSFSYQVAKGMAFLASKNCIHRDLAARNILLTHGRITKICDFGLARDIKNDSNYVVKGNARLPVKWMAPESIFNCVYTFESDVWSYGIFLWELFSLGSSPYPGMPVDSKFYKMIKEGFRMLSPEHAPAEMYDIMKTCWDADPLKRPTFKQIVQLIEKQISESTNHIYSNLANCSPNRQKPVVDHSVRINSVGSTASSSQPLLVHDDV

[28] = molecular target: Tyrosine-protein kinase Lyn (Homo sapiens, UniProt P07948); assay: Inhibition of LYN after 60 mins by radiometric assay
[29] = Inhibition of MEK after 60 mins by radiometric assay
[30] = molecular target: 3-phosphoinositide-dependent protein kinase 1 (Homo sapiens, UniProt O15530); assay: Inhibition of PDK1 after 60 mins by radiometric assay
Angiopoietin-1 receptor = Angiopoietin-1 receptor (Homo sapiens, UniProt Q02763); assay: Inhibition of TIE2 after 60 mins by radiometric assay
[31] = molecular target: Protein kinase C alpha type (Homo sapiens, UniProt P17252); assay: Inhibition of PKC-alpha after 60 mins by radiometric assay
[32] = Inhibition of Raf Y340D/Y341D mutant after 60 mins by radiometric assay
[33] = molecular target: Vascular endothelial growth factor receptor 2 (Homo sapiens, UniProt P35968); assay: Inhibition of VEGFR2 after 60 mins by radiometric assay
DU-145 [34] = assay: Decrease in STAT3 protein level in human DU145 cells after 24 hrs by Western blot analysis; type: functional, cell-based
[35] = molecular target: Signal transducer and activator of transcription 3 (Homo sapiens) (UniProt P40763); assay: Inhibition of STAT3 phosphorylation at Tyr705 in human DU145 cells at 2 uM within 2 hrs by Western blot analysis; type: cell-based; conditions: DU-145

IC50 [18]: > 100 µM | IC50 [19]: 59.4 µM | IC50 (Aurora kinase A): 54.1 µM | IC50 [20]: > 100 µM | IC50 [21]: > 100 µM | IC50 [22]: > 100 µM | IC50 [23]: 13.1 µM | IC50 [24]: 77.5 µM | IC50 [25]: > 100 µM | IC50 [26]: > 100 µM | IC50 [27]: 27.8 µM | IC50 [28]: 23.8 µM | IC50 [29]: > 100 µM | IC50 [30]: 83.9 µM | IC50 (Angiopoietin-1 receptor): 67.8 µM | IC50 [31]: > 100 µM | IC50 [32]: > 100 µM | IC50 [33]: 23.1 µM | inhibition [35]: Active
Compound: O=C(Nc1ccc([N+](=O)[O-])cc1Cl)c1cc(Cl)ccc1O [NICLOSAMIDE]
Activity (DU-145 [1]): 32.84% | Activity (DU-145 [2]): 9.76% | Activity (DU-145 [3]): 75.35% | Activity (DU-145 [4]): 16.82% | Activity (DU-145 [5]): 7.83% | viability at 1 µM (DU-145 [6]): 83.9% | Activity (DU-145 [7]): 4.84% | Activity (DU-145 [8]): 8.16% | Activity (DU-145 [9]): 2.63% | viability at 5 µM (DU-145 [10]): 61.9% | Activity (DU-145 [11]): 10.44% | Activity (DU-145 [12]): 25.41% | Activity (DU-145 [13]): 2.27% | viability at 10 µM (DU-145 [14]): 43.4% | Activity (DU-145 [15]): 15.42% | Activity (DU-145 [16]): 38.72% | Activity (DU-145 [17]): 2.43% | Activity (DU-145 [34]): inactive
